B1: H296-H296: modified fibronectin fragment in which two H-296's are connected to each other (SEQ ID NO: 22) (protein)
chain: AIPAPTDLKFTQVTPTSLSAQWTPPNVQLTGYRVRVTPKEKTGPMKEINLAPDSSSVVVSGLMVATKYEVSVYALKDTLTSRPAQGVVTTLENVSPPRRARVTDATETTITISWRTKTETITGFQVDAVPANGQTPIQRTIKPDVRSYTITGLQPGTDYKIYLYTLNDNARSSPVVIDASTAIDAPSNLRFLATTPNSLLVSWQPPRARITGYIIKYEKPGSPPREVVPRPRPGVTEATITGLEPGTEYTIYVIALKNNQKSEPLIGRKKTDELPQLVTLPHPNLHGPEILDVPSTAMAIPAPTDLKFTQVTPTSLSAQWTPPNVQLTGYRVRVTPKEKTGPMKEINLAPDSSSVVVSGLMVATKYEVSVYALKDTLTSRPAQGVVTTLENVSPPRRARVTDATETTITISWRTKTETITGFQVDAVPANGQTPIQRTIKPDVRSYTITGLQPGTDYKIYLYTLNDNARSSPVVIDASTAIDAPSNLRFLATTPNSLLVSWQPPRARITGYIIKYEKPGSPPREVVPRPRPGVTEATITGLEPGTEYTIYVIALKNNQKSEPLIGRKKTDELPQLVTLPHPNLHGPEILDVPST
modifications: Fibronectin fragment named H296-H296

Tests used:
γδ T cells [1] = assay: Expansion of γδ T cell population using pamidronate in Yssel's medium (Example 4); format: cell-based; conditions: human PBMCs, stimulant pamidronate 5 μM, IL-2 100 U/mL, immobilized FN fragment, day 14
Method: The expansion of a γδ T cell population was carried out in the same manner as in Example 2-(1), provided that as a basal medium for culture, a medium prepared originally by the applicant having the same composition as an Yssel's medium (hereinafter referred to as “Yssel's medium”) was used in place of IMDM, and that on the fifth day from the initiation of culture, 1 mL of an Yssel's medium containing 10% (v/v) human AB serum was added to each well, to dilute the cell suspension.
The ratio of γδ T cells was analyzed according to flow cytometry for PBMCs prepared in Example 1-(1) and the cells on the fourteenth day from the initiation of culture prepared in Example 4-(1), in the same manner as in Example 1-(4). As a result, the ratio of the γδ T cells was 8.9% for the PBMCs, and the ratio was from 89.7 to 94.3% for the cells on the fourteenth day from the initiation of culture.
(§1) The number of live cells was counted according to trypan blue staining method for the cells on the fourteenth day from the initiation of culture prepared in Example 4-(1). The expansion fold of γδ T cells was calculated in comparison of the counted number with the number of γδ T cells at the initiation of culture, in the same manner as in Example 1-(5).

γδ T cells [2] = assay: Expansion of γδ T cell population using zoledronate (Example 5); format: cell-based; conditions: human PBMCs; RPMI 1640, then 10HRPMI+L-Gln; stimulant zoledronate 1 μM for 48 hours; IL-2 100 U/mL; immobilized FN fragment; day 14
Method: The immobilization of an FN fragment was carried out in the same manner as in Example 1-(2), provided that a 6-well cell culture plate was used as a plate to be immobilized, and that an ACD-A solution (pH 5.0) containing H296-H296 (final concentration: 3 μg/mL) was added in a volume of 1.2 mL/well each.
PBMCs prepared in Example 1-(1) were suspended in an RPMI 1640 medium containing 0.25% (w/v) HSA so as to have a concentration of 1×10^6 cells/mL, to prepare a cell suspension. Thereafter, the above cells were added to a plate to which nothing was immobilized, or the plate immobilized with H296-H296 prepared in Example 5-(1), in a volume of 5 mL/well each. […]
The ratio of γδ T cell was analyzed according to flow cytometry for PBMCs prepared in Example 1-(1) and the cells on the fourteenth day from the initiation of culture prepared in Example 5-(2), in the same manner as in Example 1-(4). […]
as §1, with “5-(2).” for “4-(1).”

| Molecule | Expansion Fold of γδ T Cells (Folds) Fourteenth Day of Culture (γδ T cells [1]) | Expansion Fold of γδ T Cells (Folds) Fourteenth Day of Culture (γδ T cells [2]) |
| --- | --- | --- |
| CH-296: polypeptide comprising a cell binding domain, a heparin binding domain and a CS-1 domain of fibronectin (SEQ ID NO: 13) | ×101.4 Folds | – |
| B1 | – | ×107.5 Folds |
